Data from PMC5063900, “A phase 1 study of the safety, tolerability, pharmacokinetics, and pharmacodynamics of TAK-063, a selective PDE10A inhibitor” (Psychopharmacology, 2016).

Assay: Food effect on pharmacokinetics, 100 mg fed vs fasting
Format: in vivo, human
Procedure: Healthy Japanese and non-Japanese subjects between 18 and 55 years of age were recruited to participate in the study. Criteria for exclusion included prior treatment with any investigational compound within 30 days of the first TAK-063 dose, a positive test for drugs of abuse or nicotine, and an increased risk for suicide. Subjects were randomized into 1 of 6 dose cohorts (3, 10, 30, 100, 300, and 1000 mg), with each cohort containing 11 TAK-063 subjects (five Japanese, six non-Japanese) and three placebo subjects (one Japanese, two non-Japanese) receiving a single dose under fasting conditions. […] Plasma concentrations of TAK-063 and its metabolite M-I were subsequently measured by validated liquid chromatography-tandem mass spectrometry with a validated range of 0.5 to 1000 ng/mL for both analytes. The PK parameters analyzed for TAK-063 and its metabolite M-I in plasma and urine included area under the plasma concentration-time curve from time 0 to infinity (AUC (0-inf)), maximum observed plasma concentration (C max), time to reach C max (T max), terminal elimination half-life (T 1/2), oral clearance (CL/F), volume of distribution (Vz/F), and renal clearance (CLr). […] A power model was used to evaluate dose proportionality by race for fasted subjects; in the event of no observed race effect, dose proportionality was assessed for all subjects. […]

Compound: COc1cn(-c2ccc(-n3cccn3)cc2F)nc(-c2ccnn2-c2ccccc2)c1=O [TAK-063]
- Median T max (fed (standard meal)): 6 h
- Oral bioavailability, fed relative to fasting (standard meal): approximately 2 fold
